Reference: PMC7453296 (Journal of Pesticide Science, 2020)

Columns and labels:
[1] = tested on: HcbA3C-His (HcbA3, NADH:FMN oxidoreductase); experiment: NADH oxidation at […] nm, steady-state ping-pong fit; type: biochemical, Nocardioides sp. PD653; conditions: 20 mM KPi pH 7.5, 20°C, ping-pong bi-bi
[2] = biological target: HcbA3C-His (HcbA3, NADH:FMN oxidoreductase); experiment: fluorescence quenching titration of flavin; type: binding, Nocardioides sp. PD653; conditions: 50 nM FMN, 20 mM KPi pH 7.5, 20°C; oxidized FMN

Row | Km ([1]; FMN 1–8 µM) | Kd [2] | Km ([1]; NADH 10–120 µM) | Structure (SMILES)
1 | 51.7 ± 11.6 µM |  |  | NC(=O)C1=CN([C@@H]2O[C@H](COP(=O)(O)OP(=O)(O)OC[C@H]3O[C@@H](n4cnc5c(N)ncnc54)[C@H](O)[C@@H]3O)[C@@H](O)[C@H]2O)C=CC1 [NADH]
2 |  | 750 ± 170 nM | 4.43 ± 0.69 µM | Cc1cc2nc3c(=O)[nH]c(=O)nc-3n(C[C@H](O)[C@H](O)[C@H](O)COP(=O)(O)O)c2cc1C [FMN]
